Laboratory results as given in PubChem BioAssay (NCI).
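The compound was tested at five concentrations on cells cultured in 96-well plates, with a 48-hour exposure period. TGI denotes the concentration required for complete inhibition of growth.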

Legend:
Experiment in all cases: NCI anticancer screen, dose series, 48 h
OVCAR-4 ovarian = system: OVCAR-4 ovarian
KM12 colon = system: KM12 colon
MALME-3M melanoma = system: MALME-3M melanoma
BT-549 breast = system: BT-549 breast
MDA-MB-435 = system: MDA-MB-435
SF-295 CNS = system: SF-295 CNS
SK-MEL-5 melanoma = system: SK-MEL-5 melanoma
T-47D breast = system: T-47D breast
UO-31 renal = system: UO-31 renal
SN12C renal = system: SN12C renal

CC(C)C(Sc1nc(N)nc2nc[nH]c12)C(=O)O (stereo not drawn)
TGI (OVCAR-4 ovarian): > 100 µM | TGI (KM12 colon): > 100 µM | TGI (MALME-3M melanoma): > 100 µM | TGI (BT-549 breast): > 100 µM | TGI (MDA-MB-435): > 100 µM | TGI (SF-295 CNS): > 100 µM | TGI (SK-MEL-5 melanoma): > 100 µM | TGI (T-47D breast): > 100 µM | TGI (UO-31 renal): > 100 µM | TGI (SN12C renal): > 100 µM

O=C(OC1C#CCSCC#C/C=C\1)c1ccc2c(c1)C(=O)c1ccccc1C2=O (stereo not drawn)
TGI (OVCAR-4 ovarian): > 100 µM | TGI (KM12 colon): > 100 µM | TGI (MALME-3M melanoma): > 100 µM | TGI (BT-549 breast): 54.1 µM | TGI (MDA-MB-435): > 100 µM | TGI (SF-295 CNS): > 100 µM | TGI (SK-MEL-5 melanoma): > 100 µM | TGI (T-47D breast): > 100 µM | TGI (UO-31 renal): > 100 µM | TGI (SN12C renal): > 100 µM

O=C(O)c1ccccc1Sc1ccc(C=C2NC(=S)N(c3ccccc3)C2=O)s1
TGI (OVCAR-4 ovarian): 59.8 µM | TGI (KM12 colon): > 100 µM | TGI (MALME-3M melanoma): > 100 µM | TGI (BT-549 breast): > 100 µM | TGI (MDA-MB-435): > 100 µM | TGI (SF-295 CNS): > 100 µM | TGI (SK-MEL-5 melanoma): > 100 µM | TGI (T-47D breast): > 100 µM | TGI (UO-31 renal): > 100 µM | TGI (SN12C renal): > 100 µM

c1ccc(-c2cc(-c3ccccc3)nc(-c3ccncc3)c2)cc1
TGI (OVCAR-4 ovarian): > 100 µM | TGI (KM12 colon): > 100 µM | TGI (MALME-3M melanoma): > 100 µM | TGI (BT-549 breast): > 100 µM | TGI (MDA-MB-435): > 100 µM | TGI (SF-295 CNS): > 100 µM | TGI (SK-MEL-5 melanoma): > 100 µM | TGI (T-47D breast): > 100 µM | TGI (UO-31 renal): > 100 µM | TGI (SN12C renal): > 100 µM

O=[N+]([O-])c1ccc(CSC2=C(c3ccc(Cl)cc3)S/C(=C3\SC(SCc4ccc([N+](=O)[O-])cc4)=C(c4ccc(Cl)cc4)S3)S2)cc1
TGI (OVCAR-4 ovarian): > 100 µM | TGI (KM12 colon): > 100 µM | TGI (MALME-3M melanoma): > 100 µM | TGI (BT-549 breast): > 100 µM | TGI (MDA-MB-435): > 100 µM | TGI (SF-295 CNS): > 100 µM | TGI (SK-MEL-5 melanoma): > 100 µM | TGI (T-47D breast): > 100 µM | TGI (SN12C renal): > 100 µM

COc1cc2c(cc1C)NC(=O)/C2=C/c1c(Cl)[nH]c2ccccc12
TGI (KM12 colon): 16.9 µM | TGI (MALME-3M melanoma): 15.3 µM | TGI (BT-549 breast): 9.35 µM | TGI (MDA-MB-435): 4.13 µM | TGI (SF-295 CNS): 5.52 µM | TGI (SK-MEL-5 melanoma): 11.4 µM | TGI (T-47D breast): 34.1 µM | TGI (UO-31 renal): 25.8 µM | TGI (SN12C renal): 16.7 µM

CCC(CCCC[C@H]1CC[C@@H]2CC(=O)C[C@H]12)OC (stereo partly drawn)
TGI (OVCAR-4 ovarian): > 100 µM | TGI (KM12 colon): > 100 µM | TGI (MALME-3M melanoma): > 100 µM | TGI (BT-549 breast): > 100 µM | TGI (MDA-MB-435): > 100 µM | TGI (SF-295 CNS): > 100 µM | TGI (SK-MEL-5 melanoma): > 100 µM | TGI (T-47D breast): > 100 µM | TGI (SN12C renal): > 100 µM

CC[C@@]1(O)C(=O)OCc2c1cc1n(c2=O)Cc2c-1nc1ccc(N)cc1c2CC[Si](C)(C)C
TGI (OVCAR-4 ovarian): 5.94 µM | TGI (KM12 colon): 3.68 µM | TGI (MALME-3M melanoma): 0.31 µM | TGI (BT-549 breast): 13.1 µM | TGI (MDA-MB-435): 4.54 µM | TGI (SF-295 CNS): < 0.0417 µM | TGI (SK-MEL-5 melanoma): < 0.0222 µM | TGI (T-47D breast): 20.6 µM | TGI (UO-31 renal): < 0.0173 µM | TGI (SN12C renal): < 0.01 µM

Cc1csc(NCc2ccc(Cl)cc2)n1
TGI (OVCAR-4 ovarian): > 100 µM | TGI (KM12 colon): > 100 µM | TGI (MALME-3M melanoma): > 100 µM | TGI (BT-549 breast): > 100 µM | TGI (MDA-MB-435): > 100 µM | TGI (SF-295 CNS): > 100 µM | TGI (SK-MEL-5 melanoma): 59.4 µM | TGI (T-47D breast): > 100 µM | TGI (UO-31 renal): > 100 µM | TGI (SN12C renal): > 100 µM

CN(CCNC(=O)c1nn(C)c2c1Cc1ccccc1-2)CCNC(=O)c1nn(C)c2c1Cc1ccccc1-2
TGI (OVCAR-4 ovarian): 53.1 µM | TGI (KM12 colon): 43.7 µM | TGI (MALME-3M melanoma): 29.8 µM | TGI (BT-549 breast): 30.9 µM | TGI (MDA-MB-435): 31.1 µM | TGI (SF-295 CNS): 30.8 µM | TGI (SK-MEL-5 melanoma): 24.5 µM | TGI (T-47D breast): 91.5 µM | TGI (UO-31 renal): 24.2 µM | TGI (SN12C renal): 30.8 µM

CCOC(=O)c1cccc(N=NNc2cccc(C(=O)OCC)c2)c1
TGI (OVCAR-4 ovarian): 63 µM | TGI (KM12 colon): > 100 µM | TGI (MALME-3M melanoma): > 100 µM | TGI (BT-549 breast): > 100 µM | TGI (MDA-MB-435): > 100 µM | TGI (SF-295 CNS): 45.4 µM | TGI (SK-MEL-5 melanoma): > 100 µM | TGI (T-47D breast): > 100 µM | TGI (UO-31 renal): 45.6 µM | TGI (SN12C renal): 73.5 µM

NC1CC(=O)c2c(I)sc(I)c21 (stereo not drawn)
TGI (OVCAR-4 ovarian): 38.4 µM | TGI (KM12 colon): 32.9 µM | TGI (MALME-3M melanoma): 29.8 µM | TGI (BT-549 breast): 37.4 µM | TGI (MDA-MB-435): 38.7 µM | TGI (SF-295 CNS): 39.8 µM | TGI (SK-MEL-5 melanoma): > 71.1 µM | TGI (T-47D breast): > 73 µM | TGI (UO-31 renal): 35.5 µM | TGI (SN12C renal): > 60.6 µM

O=C1CC2(CCN(Cc3ccccc3)CC2)C(=O)N1N1CCCCC1
TGI (KM12 colon): > 100 µM | TGI (MALME-3M melanoma): > 100 µM | TGI (BT-549 breast): > 100 µM | TGI (MDA-MB-435): > 100 µM | TGI (SF-295 CNS): > 100 µM | TGI (SK-MEL-5 melanoma): > 100 µM | TGI (T-47D breast): > 100 µM | TGI (UO-31 renal): > 100 µM | TGI (SN12C renal): > 100 µM

N#CC1=C(N)OC2=C(CCCc3ccc([N+](=O)[O-])cc32)C1c1ccc(Cl)cc1 (stereo not drawn)
TGI (OVCAR-4 ovarian): 28.3 µM | TGI (KM12 colon): > 100 µM | TGI (MALME-3M melanoma): 31.4 µM | TGI (BT-549 breast): 75.3 µM | TGI (MDA-MB-435): 65.5 µM | TGI (SF-295 CNS): > 100 µM | TGI (SK-MEL-5 melanoma): 15.7 µM | TGI (T-47D breast): 53.9 µM | TGI (UO-31 renal): > 100 µM | TGI (SN12C renal): 6.78 µM

CCc1nnc2sc(-c3ccc(-c4ccccc4[N+](=O)[O-])o3)nn12
TGI (OVCAR-4 ovarian): > 100 µM | TGI (KM12 colon): > 100 µM | TGI (MALME-3M melanoma): > 100 µM | TGI (BT-549 breast): > 100 µM | TGI (MDA-MB-435): 49.8 µM | TGI (SF-295 CNS): > 100 µM | TGI (SK-MEL-5 melanoma): 65.9 µM | TGI (T-47D breast): > 100 µM | TGI (UO-31 renal): > 100 µM | TGI (SN12C renal): > 100 µM

CC(=O)N(C(=O)CC(=O)N1N=C(C)C(N=Nc2cccc([N+](=O)[O-])c2)C1=O)c1ccc(Cl)cc1 (stereo not drawn)
TGI (OVCAR-4 ovarian): > 10 µM | TGI (KM12 colon): > 10 µM | TGI (MALME-3M melanoma): > 10 µM | TGI (BT-549 breast): > 10 µM | TGI (MDA-MB-435): > 10 µM | TGI (SF-295 CNS): > 10 µM | TGI (SK-MEL-5 melanoma): > 10 µM | TGI (T-47D breast): > 10 µM | TGI (SN12C renal): > 10 µM

O=C(O)COc1c(Cl)cc(Cl)c(C(c2c(Cl)cc(Cl)c(OCC(=O)O)c2Cl)C(Cl)(Cl)Cl)c1Cl
TGI (OVCAR-4 ovarian): > 100 µM | TGI (KM12 colon): > 100 µM | TGI (MALME-3M melanoma): 76.7 µM | TGI (BT-549 breast): 51.3 µM | TGI (MDA-MB-435): 78.2 µM | TGI (SF-295 CNS): 51.9 µM | TGI (SK-MEL-5 melanoma): 40.6 µM | TGI (T-47D breast): > 100 µM | TGI (UO-31 renal): 55.2 µM | TGI (SN12C renal): > 100 µM

O=C1N[C@@H]([C@H]2CC[C@H](Cl)CN2)C(=O)N[C@H]1[C@H]1CC[C@H](Cl)CN1
TGI (OVCAR-4 ovarian): 8.78 µM | TGI (KM12 colon): 19.1 µM | TGI (MALME-3M melanoma): 8.59 µM | TGI (BT-549 breast): 4.27 µM | TGI (MDA-MB-435): 32 µM | TGI (SF-295 CNS): 5.36 µM | TGI (SK-MEL-5 melanoma): 5.53 µM | TGI (T-47D breast): 56.1 µM | TGI (UO-31 renal): 6.42 µM | TGI (SN12C renal): 18.9 µM

O=C1c2ccccc2CC12Cc1ccc3c(c1C2=O)CCCC3 (stereo not drawn)
TGI (OVCAR-4 ovarian): > 100 µM | TGI (KM12 colon): > 100 µM | TGI (MALME-3M melanoma): > 100 µM | TGI (BT-549 breast): > 100 µM | TGI (MDA-MB-435): > 100 µM | TGI (SF-295 CNS): > 100 µM | TGI (SK-MEL-5 melanoma): > 100 µM | TGI (T-47D breast): 9.59 µM | TGI (UO-31 renal): > 100 µM | TGI (SN12C renal): > 100 µM

COc1cccc(C2c3cc4c(cc3OC(NNS(=O)(=O)c3ccc(C)cc3)C2C)OCO4)c1O (stereo not drawn)
TGI (KM12 colon): 79.2 µM | TGI (MALME-3M melanoma): 64.4 µM | TGI (BT-549 breast): 68.8 µM | TGI (MDA-MB-435): 92.4 µM | TGI (SF-295 CNS): 94.6 µM | TGI (SK-MEL-5 melanoma): 42 µM | TGI (T-47D breast): > 100 µM | TGI (UO-31 renal): > 100 µM | TGI (SN12C renal): > 100 µM

COc1ccc2cc(CNCCCCCCNC(=O)Nc3cccc4ccccc34)ccc2c1
TGI (OVCAR-4 ovarian): > 100 µM | TGI (KM12 colon): > 100 µM | TGI (MALME-3M melanoma): > 100 µM | TGI (BT-549 breast): > 100 µM | TGI (MDA-MB-435): > 100 µM | TGI (SF-295 CNS): > 100 µM | TGI (SK-MEL-5 melanoma): > 100 µM | TGI (T-47D breast): > 100 µM | TGI (SN12C renal): > 100 µM
